Experimental findings from patent US20120183660A1, “ISOMANNIDE DERIVATIVES AND THEIR USE AS TASTANTS” (Senomyx, Inc., priority 2009, published 2012) are described below.

The structures appear in SMILES notation.

The subject of the assay is un-induced I-17 cells. Description: FLIPR assay on un-induced I-17 cells (no mifepristone induction of receptor expression). The format is cell-based. To be noted: compounds at 10 μM—or three times the maximum stimulation used in the dose-response analysis. The protocol:
In order to determine the dependency of hT1R1/hT1R3 for the cell response to different stimuli, selected compounds were subjected to a similar analysis on I-17 cells that had not been induced for receptor expression with mifepristone (designated as un-induced I-17 cells). […] Compounds were presented to un-induced umami cells at […]—or three times the maximum stimulation used in the dose-response analysis.

In the case of `N[C@@H](CCC(=O)O)C(=O)[O-].[Na+]` [monosodium glutamate], the “functional response in the FLIPR assay on un-induced umami cells” value is given as “do not show any functional response”.
